Data set [1] addresses p7 (5a) protein (Hepatitis C virus genotype 5a (Hepacivirus hominis), UniProt O39928, A759S/C749A/C774T/C791S/T748G). Kind of data set: NMR titration (2D 1H-15N TROSY-HSQC chemical shift perturbation) for Kd. The format is binding. As to conditions: for Kd: read-out: Kd GT5a.
Data set [2] concerns Huh7.5.1 cells. As to the kind of experiment: CellTiter-Glo cell viability and cytotoxicity assay. The note with it: 12 h incubation. On the technique in general: In ATP-based viability assays light output follows the ATP content of the culture.
Description: (§1) (B) After incubation with each compound, the cell viability and cytotoxicity were detected by CellTiter-Glo® Luminescent Cell Viability Assay reagent (Promega GS7570, Madison, WI, USA). […] Data were presented as the percentage of mock treatment control. […] Two independent experiments were repeated showing similar results.
(§2) Cell viability and cytotoxicity were detected by CellTiter-Glo® Luminescent Cell Viability Assay reagent (Promega GS7570, Madison, WI, USA). Briefly, Huh7.5.1 cells were seeded at a density of 80,000 cells per well in 24-well microplates and allowed to attach and grow overnight. The next day, the cell-culture media with serially diluted compounds in 0.5% DMSO or mock were added to the cells. After 12 h of incubation, cells were collected and lysed for the cell cytotoxicity assay.
For data set [3], the system named is HCV (JFH1 strain with adaptive mutations). The format is cell-based. As to conditions: for viral production kinetics versus mock control: 20 μM, supernatant at 2, 6, 12 and 24 h post-incubation; for IC50 against HCV compared with Rim: Huh7.5.1 cells, JFH1, 12 h.
Data set [4] can be described thus: CellTiter-Glo cell viability and cytotoxicity assay. The note with it: human, Huh7.5.1 cells.
Description: as §1, §2
The subject of data set [5] is HCV genotype 3. More on the design: method as in PMID 27783808. As to conditions: cited from earlier work.
Data set [6] concerns HCV. More on the design: method as in PMID 18828153. As to conditions: cited from earlier work.
For data set [7], the system named is hepatoma cell lines. More on the design: method as in PMID 18828153. The note with it: cited from earlier work.
The mark [8] stands for this setting: apparent Kd from chemical shift changes of Val7 or Leu8, 0.1 mM 15N-p7 (5a) in 20 mM DPC, 30 °C.

Where two headings read alike, the source gives them in different places.

By CC50 is commonly meant the concentration at which the toxic effect on the cells reaches its halfway point. High values mean lower toxicity to the cells, low ones greater toxicity to the cells.

Sequence of p7 (5a) protein (O39928 748-810 T748G/C749A/A759S/C774T/C791S): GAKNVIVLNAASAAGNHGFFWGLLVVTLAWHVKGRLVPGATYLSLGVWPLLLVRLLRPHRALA

As for `CCNC(C)C12CC3CC(CC(C3)C1)C2` (stereo not shown) [ARD1], the Kd in data set [1] (setting [8]) came out at 487 µM.
Still for that read-out and setting: then `CCC(NC)C12CC3CC(CC(C3)C1)C2` (stereo not shown) [ARD2], with 334 µM.
For the compound `CNC(CO)C12CC3CC(CC(C3)C1)C2` (stereo not shown) [ARD6], the Kd in data set [1] (setting [8]) was determined as 344 µM.
Turning to `CNC(C(N)=O)C12CC3CC(CC(C3)C1)C2` (stereo not shown) [ARD8], the Kd in data set [1] (setting [8]) came to 707 µM.
On to `CNC(=O)C(NC)C12CC3CC(CC(C3)C1)C2` (stereo not shown) [ARD9], for which the Kd in data set [1] (setting [8]) turned out to be 418 µM.
As to `NC(C(F)F)C12CC3CC(CC(C3)C1)C2` (stereo not shown) [ARD71], the Kd in data set [1] (setting [8]) was 2460 µM.
Consider `NC(CNC(=O)CCOCCOCCOCCC(=O)NCC(N)C12CC3CC(CC(C3)C1)C2)C12CC3CC(CC(C3)C1)C2` (stereo not shown) [ARD80], for which, in data set [1] (setting [8]), the Kd amounted to 102 µM.
As for `NC(CNC(=O)CCOCCOCCOCCOCCC(=O)NCC(N)C12CC3CC(CC(C3)C1)C2)C12CC3CC(CC(C3)C1)C2` (stereo not shown) [ARD81], in data set [1] (setting [8]), the Kd stood at 81 µM.
Consider `NC(CNC(=O)CCOCCOCCOCCOCCOCCOCCC(=O)NCC(N)C12CC3CC(CC(C3)C1)C2)C12CC3CC(CC(C3)C1)C2` (stereo not shown) [ARD83], for which the Kd in data set [1] (setting [8]) was found to be 70 µM.
The same measure, in the same setting: the value for `NC(CNC(=O)CCOCCOCCOCCOCCOCCOCCOCCC(=O)NCC(N)C12CC3CC(CC(C3)C1)C2)C12CC3CC(CC(C3)C1)C2` (stereo not shown) [ARD84] was 58 µM.
Take `NC(CNC(=O)CCOCCC(=O)NCC(N)C12CC3CC(CC(C3)C1)C2)C12CC3CC(CC(C3)C1)C2` (stereo not shown) [ARD87]: the Kd in data set [1] was found to be 43 µM. Also, in data set [2], the “cytotoxicity compared with Rim” value is “significantly higher than Rim”. In addition, in data set [3], the “viral production kinetics versus mock control” value is “suppress the viral production” and the “IC50 against HCV compared with Rim” value is “about two-fold lower than that of Rim”.
As to `Oc1ccc(CNC23CC4CC(CC(C4)C2)C3)c(O)c1` [ARD89], the Kd in data set [1] (setting [8]) stood at 112 µM.
Consider `OCC1(CNCc2cc(-c3ccccc3)on2)C2CC3CC(C2)CC1C3` (stereo not shown) [ARD98], for which the Kd in data set [1] (setting [8]) is 102 µM.
The same measure, in the same setting: then `Cc1cc(CNCC2(CO)C3CC4CC(C3)CC2C4)ccn1` (stereo not shown) [ARD99], with 852 µM.
In the case of `Cc1ccc(CNCC2(CO)C3CC4CC(C3)CC2C4)cn1` (stereo not shown) [ARD100], the Kd in data set [1] (setting [8]) was found to be 107 µM.
As to `OCC1(CNCc2cc(C3CC3)on2)C2CC3CC(C2)CC1C3` (stereo not shown) [ARD101], the Kd in data set [1] (setting [8]) worked out at 105 µM.
Consider `CC1(NCc2nnc(-c3cc(O)cc(O)c3)[nH]2)C2CC3CC(C2)CC1C3` (stereo not shown) [ARD112], for which the Kd in data set [1] (setting [8]) turned out to be 5 µM. In addition, the “binding strength relative to the best dimeric compound ARD87” value in data set [1] (from NMR Kd values, p7 (5a)) is ~ 10 fold. This compound also gave a cytotoxic concentration (CC50) at 12 h in data set [4] greater than 100 µM. Moreover, in data set [2], the “cytotoxicity compared with Rim” value is on record as “comparable to Rim”. In data set [3], the “viral production kinetics versus mock control” value is listed as “suppress the viral production” and the “IC50 against HCV compared with Rim” value is “about two-fold lower than that of Rim”.
For the compound `NC12CC3CC(CC(C3)C1)C2` [Amantadine], the “inhibition of genotype 3” value in data set [5] was “could not inhibit genotype 3”.
For the compound `CC(N)C12CC3CC(CC(C3)C1)C2` (stereo not shown) [Rimantadine, reference compound], the anti-HCV activity result in data set [6] was “moderate anti-HCV activity”. Also, the Kd in data set [1] was determined as 98 µM. In data set [4], this compound yielded a CC50 at 12 h greater than 100 µM. Besides, the “viral production kinetics versus mock control” value in data set [3] is reported as “suppress the viral production”. Moreover, the “cytotoxicity against hepatoma cell lines” value in data set [7] was “no significant cytotoxicity”.

The values above are taken from publication PMC7961618, “Inhibitor Development against p7 Channel in Hepatitis C Virus” (Molecules, 2021).
